Data: patent publication US6165441A, “Method of diagnosis and photodynamic therapy of tumours” (Nycomed Amersham Sorin SRL, priority 1995, dated 2000)

Experiments:
tumour = details: cited from earlier work
MS-2 fibrosarcoma = test: Tumour accumulation and tumour/muscle radioactivity ratio; format: in vivo, Balb/c mice; details: for Kinetics of tumour uptake and clearance, ^131 I--ZnPc versus ZnPc: mouse, in vivo; for Recovery from TUMOUR: average of three mice ± s.d.
Method: (§1) Experimental tests were carried out in Balb/c mice affected by a MS-2 fibrosarcoma. This tumour model had been previously used for extensive PDT studies with unlabelled ZnPc.
(§2) For tumour implantation 2×10^5 cells in 0.2 ml of sterile physiological solution were intramuscularly injected into the right hind leg of female Balb/c mice having a body wt. of 20-22 g. All the experiments were started on the eighth day after tumour implantation, when the external diameter was ca. 0.8 cm and no detectable spontaneous tumour necrosis had generally occurred. When necessary, mice were anesthetized by i.p. injection of Ketalar (150 mg/kg).
(§3) Balb/c mice bearing the MS-2 fibrosarcoma were injected in the tail vein with ^131 I--ZnPc at does between 0.024 and 0.096 MBq/g. At predetermined times up to 24 hours after injection, the whole body of the mice was scanned with a Gamma Camera General Electric Stargem in order to ensure the radioactivity levels at different anatomical sites. Then, the mice were sacrificed by prolonged exposure to ether vapours; the blood, tumour and selected normal tissues (muscle, skin, lung, liver, spleen, kidney, brain) were rapidly taken. The blood was centrifuged to remove the erythrocytes and the radioactivity in the plasma (100 μl) was analyzed. Moreover, tissues were washed with physiological solution, weighed, introduced into RIA test tubes and centrifuged for 10 minutes and 2000 g. The radioactivity was collected for 1 minute by a gamma counter (Packard Selektronik Design). A different group of mice was injected as above described, sacrificed at 3 hours, 15 hours, 24 hours, 48 hours and 96 hours after injection (three mice at each time) and the radioactivity in plasma and tissues homogenates was determined.
FIG. 2 is an histogram showing the ratio between the tumour/muscle radioactivity of ^131 I--ZnPc at different times after injection of 0.096 MBq/g ^131 I--ZnPc in DPPC liposomes; averaged ratios for three independently analyzed mice±s.d..
FIG. 3 is an histogram showing the ratio between the tumour/muscle radioactivity of ^131 I--ZnPc at different concentrations at 24 hours after injection of ^131 I--ZnPc in DPPC liposomes; averaged ratio for three independently analyzed mice±s.d..

[1] = Biodistribution of ^131 I radioactivity in excised tissues after i.v. injection (pharmacokinetic studies, gamma counter); format: in vivo, Balb/c mice; details: for Recovery from BRAIN / Recovery from KIDNEY / Recovery from LIVER / Recovery from LUNG / Recovery from MUSCLE / Recovery from SPLEEN: 0.096 MBq/g in DPPC liposomes, average of three mice ± s.d.
Method: as §1, §2
^131 I--Zn(II)-phthalocyanine was incorporated into small unilamellar vesicles of DPPC following the procedure described by Valduga et al., J.Inorg.Biochem. (1987), 25-59.
as §3

[2] = Clearance of ^131 I--ZnPc from serum; format: in vivo, Balb/c mice
Method: as §3

[3] = In vivo whole body Gamma Camera scanning of radioactivity distribution; design: species or system Balb/c mice
Method: as §3

[4] = i.v. 0.096 MBq/g in DPPC liposomes

For [Zn+2].c1ccc2c(c1)-c1nc-2nc2[n-]c(nc3nc([n-]c4nc(n1)-c1ccccc1-4)-c1ccccc1-3)c1ccccc21 [ZnPc, Zn(II)-phthalocyanine], the “Selectivity of tumour accumulation” value (tumour; in vivo) is given as “enhanced selectivity of tumour accumulation”, the “Lowest phototherapeutically active dose” value (tumour; liposome-incorporated, doses as low as) is given as 0.15 mg/kg body wt and the “Kinetics of tumour uptake and clearance, ^131 I--ZnPc versus ZnPc” value (MS-2 fibrosarcoma) is given as “quite similar”.

With “^131 I--Zn(II)-phthalocyanine [^131 I--ZnPc]” the “Recovery from BRAIN” value ([1]; 3 h) was 11.7 ± 0.1 CPM/mg of tissue, the “Recovery from KIDNEY” value ([1]; 3 h) was 156.9 ± 9.7 CPM/mg of tissue and the “Recovery from LIVER” value ([1]; 3 h) was 984.2 ± 15.7 CPM/mg of tissue. For the same compound, the “Recovery from LUNG” value ([1]; 3 h) was 168.3 ± 5.6 CPM/mg of tissue, the “Recovery from MUSCLE” value ([1]; 3 h) was 41.1 ± 3.6 CPM/mg of tissue and the “Recovery from SPLEEN” value ([1]; 3 h) was 600.9 ± 8.1 CPM/mg of tissue. For the same compound, the “Recovery from BRAIN” value ([1]; 15 h) was 5.2 ± 1.5 CPM/mg of tissue, the “Recovery from KIDNEY” value ([1]; 15 h) was 84.4 ± 8.4 CPM/mg of tissue and the “Recovery from LIVER” value ([1]; 15 h) was 871.1 ± 146.8 CPM/mg of tissue. The “Recovery from LUNG” value ([1]; 15 h) was 76.2 ± 31.4 CPM/mg of tissue, the “Recovery from MUSCLE” value ([1]; 15 h) was 22.4 ± 9.3 CPM/mg of tissue and the “Recovery from SPLEEN” value ([1]; 15 h) was 503.7 ± 46.8 CPM/mg of tissue. For the same compound, the “Recovery from BRAIN” value ([1]; 24 h) was 4.3 ± 0.6 CPM/mg of tissue, the “Recovery from KIDNEY” value ([1]; 24 h) was 77.3 ± 11.2 CPM/mg of tissue and the “Recovery from LIVER” value ([1]; 24 h) was 1043.7 ± 72.5 CPM/mg of tissue. The “Recovery from LUNG” value ([1]; 24 h) was 83.3 ± 12.4 CPM/mg of tissue, the “Recovery from MUSCLE” value ([1]; 24 h) was 23.7 ± 2.0 CPM/mg of tissue and the “Recovery from SPLEEN” value ([1]; 24 h) was 635.1 ± 65.8 CPM/mg of tissue. The “Recovery from BRAIN” value ([1]; 48 h) was 3.4 CPM/mg of tissue, the “Recovery from KIDNEY” value ([1]; 48 h) was 59.4 CPM/mg of tissue and the “Recovery from LIVER” value ([1]; 48 h) was 849.1 ± 90.3 CPM/mg of tissue. The “Recovery from LUNG” value ([1]; 48 h) was 73.4 CPM/mg of tissue, the “Recovery from MUSCLE” value ([1]; 48 h) was 22.3 CPM/mg of tissue and the “Recovery from SPLEEN” value ([1]; 48 h) was 549.7 CPM/mg of tissue. The “Recovery from BRAIN” value ([1]; 96 h) was 2.0 ± 0.4 CPM/mg of tissue, the “Recovery from KIDNEY” value ([1]; 96 h) was 61.6 ± 16.8 CPM/mg of tissue and the “Recovery from LIVER” value ([1]; 96 h) was 831.9 ± 52.5 CPM/mg of tissue. The “Recovery from LUNG” value ([1]; 96 h) was 52.1 ± 6.9 CPM/mg of tissue, the “Recovery from MUSCLE” value ([1]; 96 h) was 15.8 ± 2.5 CPM/mg of tissue and the “Recovery from SPLEEN” value ([1]; 96 h) was 413.0 ± 42.7 CPM/mg of tissue. The “Amounts recovered from muscle” value ([1]; at all times) was “small amounts of phthalocyanine are recovered from muscle at all times”, the “Elimination from liver and spleen” value ([1]; during the initial four days) was “relatively slow elimination at least during the initial four days” and the “Amounts recovered from brain” value ([1]; i.v. in DPPC liposomes) was “minimal amounts”. The “Levels in kidneys” value ([1]; i.v. in DPPC liposomes) was “comparatively low levels observed in kidneys”, the “Recovery in the liver and spleen” value ([1]; i.v. in DPPC liposomes) was “very high in the liver and spleen” and the “Toxic effects on the central nervous system” value ([1]; inferred from minimal brain recovery) was “unlikely”. For the same compound, the “Amount cleared via the kidneys” value ([1]; main elimination via bile-gut pathway) was “only minor amounts cleared via the kidneys”, the “Amount accumulated by liver and spleen” value ([1]; mouse, in vivo) was “large amount accumulated by liver and spleen” and the “Accumulation in the liver compared with ZnPc” value ([1]; short post-injection times) was “greater accumulation”. The “Liver concentration relative to tumour” value ([1]; short post-injection times) was “ca. 7 fold”, the “Clearance rate from serum” value [2, 4] was “particularly fast during the initial 15 hours after administration” and the “Elimination from mouse serum” value ([2]; i.v. 0.096 MBq/g in DPPC liposomes, within 96 hours) was “almost completely eliminated from mouse serum within 96 hours”. The “Clearance profile from the serum” value ([2]; mouse, in vivo) was “apparently polyphasic clearance from the serum”, the “Initial radioactivity disappearing from serum” value ([2]; within the initial 24 hours post-injection, almost) was ~80% and the “Time of maximum tumour-to-muscle concentration ratio” value (MS-2 fibrosarcoma; 0.096 MBq/g in DPPC liposomes, FIG. 2) was 15 h. For the same compound, the “Tumour-to-muscle concentration ratio over the studied time interval” value (MS-2 fibrosarcoma; 0.096 MBq/g in DPPC liposomes, after 15 hours, FIG. 2) was “remains at an essentially constant level throughout the studied time interval”, the “Recovery from TUMOUR” value (MS-2 fibrosarcoma; 3 h, 0.096 MBq/g in DPPC liposomes) was 140.3 ± 38.6 CPM/mg of tissue and the “Recovery from TUMOUR” value (MS-2 fibrosarcoma; 15 h, 0.096 MBq/g in DPPC liposomes) was 182.7 ± 16.0 CPM/mg of tissue. The “Recovery from TUMOUR” value (MS-2 fibrosarcoma; 24 h, 0.096 MBq/g in DPPC liposomes) was 212.9 ± 8.6 CPM/mg of tissue, the “Effect of injected dose on tumour/muscle ratio” value (MS-2 fibrosarcoma; 24 hours after administration, 0.024 to 0.096 MBq/g, FIG. 3) was “affected to a minor extent by the injected dose” and the “Recovery from TUMOUR” value (MS-2 fibrosarcoma; 48 h, 0.096 MBq/g in DPPC liposomes) was 180.7 CPM/mg of tissue. The “Recovery from TUMOUR” value (MS-2 fibrosarcoma; 96 h, 0.096 MBq/g in DPPC liposomes) was 162.2 ± 19.5 CPM/mg of tissue, the Tumour localization (MS-2 fibrosarcoma; ^131 I label) was “efficient and selective tumour localizer” and the “Time of maximal tumour concentration” value (MS-2 fibrosarcoma; after ca.) was “ca. 24 hours”. The “Rate of uptake by the tumour” value (MS-2 fibrosarcoma; compared with several normal tissues) was “relatively low rate of uptake by the tumour as compared with several normal tissues”, the “Time of maximum accumulation in tumour” value (MS-2 fibrosarcoma; [4]) was 24 h and the “Kinetics of tumour uptake and clearance, ^131 I--ZnPc versus ZnPc” value (MS-2 fibrosarcoma) was “quite similar”. For the same compound, the “Selectivity of tumour targeting (tumour/muscle ratio) compared with ZnPc” value (MS-2 fibrosarcoma; tumour/muscle ratios of phthalocyanine recovery) was “almost twice higher selectivity of tumour targeting”, the “Localization of radioactivity in the whole animal” value ([3]; at all examined time intervals) was “strictly localized at the level of liver and tumour with no general delocalization throughout the organism” and the “Dissociation of ^131 I from the phthalocyanine in vivo” value ([3]; inferred from whole-animal distribution) was “unlikely that ^131 I is dissociated from the phthalocyanine to any significant extent”.
